# Assays:
# PCA reaction = experiment: Anti-allergic action: passive cutaneous anaphylaxis test (PCA reaction); format: in vivo; conditions: rat, injected into a vein
# Description: A rat was immunized with egg-albumin suspended in aluminum hydroxide gel in a conventional manner and a blood letting was carried out to obtain immune serum rich in IgE.
# A male rat was anethtized with ether and hairs on back were sheared to intradenally inject by 0.1 ml of the immune serum solution described in Item (1) and diluted to 5-folds, at both sides with a certain distance from a medial line on the back. After 72 hours, a mixed solution of egg albumin (5 mg/kg), 2% Evans blue and a test compound ([L-Leu^17 ]-VIP-Hse or pure native VIP) or disodium cromoglycate was injected into a vein. After 30 minutes from an occasion of PCA reaction, the experimental animal was killed and pealed-off the skin to obtain a piece of the skin dyed with the coloring matter.
# The coloring matter was extracted in accordance with the method described by Katayama ["Microbio. Immunol.", Vol. 22, No. 2, pages 89 (1978)] and an amount thereof was measured at 620 nm in wave length to calculate an inhibition of the PCA reaction.
# arterial pressure = experiment: Hypotensing action: arterial pressure after injection in femoral artery; format: in vivo; conditions: anethtized beagle dog, 0.02-10 μg/kg
# Description: In a femoral artery of anethtized beagle dog, each of the VIP analogues as Test Samples was injected in a dose of 0.02-10 μg/kg and measured an arterial pressure to prepare a chart showing a relation between the dose and change in blood pressure and check an amount of dose which shall cause a reduction of 15 mmHg in blood pressure.
compound,measurement,setting,value
O=C([O-])c1cc(=O)c2c(OCC(O)COc3cccc4oc(C(=O)[O-])cc(=O)c34)cccc2o1.[Na+].[Na+] [Disodium cromoglycate],Inhibition (%) of the PCA reaction,PCA reaction; dose 0.01 mg/kg,5%
same,Inhibition (%) of the PCA reaction,PCA reaction; dose 0.1 mg/kg,28%
same,Inhibition (%) of the PCA reaction,PCA reaction; dose 1.0 mg/kg,31%
"CC[C@H](C)[C@H](NC(=O)[C@H](CO)NC(=O)[C@H](CC(N)=O)NC(=O)[C@H](CC(C)C)NC(=O)[C@H](Cc1ccc(O)cc1)NC(=O)[C@H](CCCCN)NC(=O)[C@H](CCCCN)NC(=O)[C@@H](NC(=O)[C@H](C)NC(=O)[C@H](CCSC)NC(=O)[C@H](CCC(N)=O)NC(=O)[C@H](CCCCN)NC(=O)[C@H](CCCNC(=N)N)NC(=O)[C@H](CC(C)C)NC(=O)[C@H](CCCNC(=N)N)NC(=O)[C@@H](NC(=O)[C@H](Cc1ccc(O)cc1)NC(=O)[C@H](CC(N)=O)NC(=O)[C@H](CC(=O)O)NC(=O)[C@@H](NC(=O)[C@H](Cc1ccccc1)NC(=O)[C@@H](NC(=O)[C@H](C)NC(=O)[C@H](CC(=O)O)NC(=O)[C@H](CO)NC(=O)[C@@H](N)Cc1c[nH]cn1)C(C)C)[C@@H](C)O)[C@@H](C)O)C(C)C)C(=O)N[C@@H](CC(C)C)C(=O)N[C@@H](CC(N)=O)C(N)=O [Native VIP, vasoactive intestinal polypeptide]",Inhibition (%) of the PCA reaction,PCA reaction; dose 0.01 mg/kg,23%
same,Inhibition (%) of the PCA reaction,PCA reaction; dose 0.1 mg/kg,72%
same,Inhibition (%) of the PCA reaction,PCA reaction; dose 1.0 mg/kg,67%
same,"amount of dose causing a reduction of 15 mmHg in blood pressure, relative value (native VIP = 100%)",arterial pressure,100%
[L-Leu^17 ]-VIP-Hse-NH(CH2)9 CH3 [[L-Leu^17]-VIP-NH(CH2)9 CH3],"amount of dose causing a reduction of 15 mmHg in blood pressure, relative value (native VIP = 100%)",arterial pressure,68%
